Laboratory results as given in PubChem BioAssay (NCI).
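Where inhibition never reached the appropriate level, the endpoint shown equals the highest concentration tested. Otherwise, values were interpolated linearly from a five-concentration, 48-hour dose response in 96-well plates. GI50 marks 50% less growth. The concentration for full growth arrest is given as TGI.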

Columns and labels:
Assay in all cases: growth of human tumour cells (NCI), 48 h
[1] = system: HS 578T breast
[2] = system: TK-10 renal
[3] = system: MALME-3M melanoma
[4] = system: MOLT-4 leukemia
[5] = system: MCF7 breast
[6] = system: HCC-2998 colon
[7] = system: OVCAR-8 ovarian
[8] = system: HT29 colon
[9] = system: OVCAR-5 ovarian
[10] = system: ACHN renal
[11] = system: A498 renal
[12] = system: BT-549 breast
[13] = system: HCT-116 colon
[14] = system: RXF 393 renal
[15] = system: T-47D breast
[16] = system: SK-MEL-2 melanoma
[17] = system: SF-539 CNS
[18] = system: EKVX NSCLC
[19] = system: SNB-19 CNS
[20] = system: HOP-62 NSCLC
[21] = system: MDA-MB-231 breast
[22] = system: MDA-MB-435
[23] = system: LOX IMVI melanoma
[24] = system: UO-31 renal
[25] = system: 786-0 renal
[26] = system: NCI-H226 lung
[27] = system: NCI/ADR-RES ovarian
[28] = system: PC-3 prostate
[29] = system: UACC-62 melanoma
[30] = system: DU-145 prostate
[31] = system: A549 NSCLC
[32] = system: NCI-H23 lung
[33] = system: M14 melanoma
[34] = system: IGROV1 ovarian
[35] = system: K-562 leukemia
[36] = system: U251 CNS
[37] = system: KM12 colon
[38] = system: SNB-75 CNS
[39] = system: HL-60(TB) leukemia
[40] = system: SF-295 CNS
[41] = system: SK-MEL-28 melanoma
[42] = system: UACC-257 melanoma
[43] = system: CCRF-CEM leukemia
[44] = system: OVCAR-3 ovarian
[45] = system: COLO 205 colon
[46] = system: HCT-15 colon
[47] = system: NCI-H522 lung
[48] = system: SK-OV-3 ovarian
[49] = system: OVCAR-4 ovarian
[50] = system: SF-268 CNS
[51] = system: SN12C renal
[52] = system: SK-MEL-5 melanoma
[53] = system: SW-620 colon
[54] = system: NCI-H460 lung
[55] = system: SR leukemia
[56] = system: RPMI-8226 leukemia
[57] = system: HOP-92 NSCLC

CCCCCCCCCCCC[n+]1ccccc1
GI50 [1]: 1.87 µM | TGI [1]: 5.87 µM | GI50 [2]: 0.941 µM | TGI [2]: 2.67 µM | GI50 [3]: 1.18 µM | TGI [3]: 3.41 µM | GI50 [4]: 1.17 µM | TGI [4]: 3.66 µM | GI50 [5]: 1.25 µM | TGI [5]: 9.38 µM | GI50 [6]: 1.37 µM | TGI [6]: 5.29 µM | GI50 [7]: 1.03 µM | TGI [7]: 5.28 µM | GI50 [8]: 0.381 µM | TGI [8]: 5.47 µM | GI50 [9]: 1.57 µM | TGI [9]: 7.67 µM | GI50 [10]: 2.09 µM | TGI [10]: 14.2 µM | GI50 [11]: 1.57 µM | TGI [11]: 7.48 µM | GI50 [12]: 1.01 µM | TGI [12]: 3.03 µM | GI50 [13]: 1.92 µM | TGI [13]: 10.7 µM | GI50 [14]: 0.738 µM | TGI [14]: 3.87 µM | GI50 [15]: 0.936 µM | TGI [15]: 11.2 µM | GI50 [16]: 1.44 µM | TGI [16]: 3.73 µM | GI50 [17]: 1.47 µM | TGI [17]: 4.9 µM | GI50 [18]: 0.936 µM | TGI [18]: 9.17 µM | GI50 [19]: 1.3 µM | TGI [19]: 2.94 µM | GI50 [20]: 1.9 µM | TGI [20]: 5.57 µM | GI50 [21]: 1.34 µM | TGI [21]: 3.4 µM | GI50 [22]: 1.18 µM | TGI [22]: 3.22 µM | GI50 [23]: 1.17 µM | TGI [23]: 2.72 µM | GI50 [24]: 1.72 µM | TGI [24]: 11 µM | GI50 [25]: 1.48 µM | TGI [25]: 3.42 µM | GI50 [26]: 1.44 µM | TGI [26]: 8.83 µM | GI50 [27]: 14.9 µM | TGI [27]: 50.7 µM | GI50 [28]: 0.374 µM | TGI [28]: 2.76 µM | GI50 [29]: 1.17 µM | TGI [29]: 2.81 µM | GI50 [30]: 2.21 µM | TGI [30]: 11.6 µM | GI50 [31]: 2.02 µM | TGI [31]: 5.16 µM | GI50 [32]: 0.488 µM | TGI [32]: 5.67 µM | GI50 [33]: 0.835 µM | TGI [33]: 2.82 µM | GI50 [34]: 1 µM | TGI [34]: 2.85 µM | GI50 [35]: 0.415 µM | TGI [35]: 11.4 µM | GI50 [36]: 0.997 µM | TGI [36]: 2.44 µM | GI50 [37]: 1.12 µM | TGI [37]: 2.87 µM | GI50 [38]: 1.16 µM | TGI [38]: 4.05 µM | GI50 [39]: 0.422 µM | TGI [39]: 1.99 µM | GI50 [40]: 1.39 µM | TGI [40]: 4.1 µM | GI50 [41]: 1.68 µM | TGI [41]: 5.12 µM | GI50 [42]: 1.23 µM | TGI [42]: 3.97 µM | GI50 [43]: 1.34 µM | TGI [43]: 8.55 µM | GI50 [44]: 0.835 µM | TGI [44]: 2.88 µM | GI50 [45]: 0.868 µM | TGI [45]: 2.66 µM | GI50 [46]: 2.61 µM | TGI [46]: 16.4 µM | GI50 [47]: 0.665 µM | TGI [47]: 2.84 µM | GI50 [48]: 1.73 µM | TGI [48]: 6.35 µM | GI50 [49]: 0.515 µM | TGI [49]: 14.5 µM | GI50 [50]: 1.58 µM | TGI [50]: 5.67 µM | GI50 [51]: 1.63 µM | TGI [51]: 4.11 µM | GI50 [52]: 1.06 µM | TGI [52]: 2.26 µM | GI50 [53]: 2 µM | TGI [53]: 10.5 µM | GI50 [54]: 1.76 µM | TGI [54]: 4.58 µM | GI50 [55]: 0.202 µM | TGI [55]: 2.15 µM | GI50 [56]: 0.29 µM | TGI [56]: 1.67 µM | GI50 [57]: 0.958 µM | TGI [57]: 3.1 µM
